Results taken from ChEMBL document CHEMBL1201862, “PubChem BioAssay data set” (2004).
Active and inactive are the calls of the source.

Assays:
[1] = biological target: Homeodomain-interacting protein kinase 2 (Homo sapiens, UniProt Q9H2X6); assay type: functional;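 also: measured within a kinome-wide kinase profiling panel, HIPK2 being one panel member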
[2] = biological target: Aurora kinase A (Homo sapiens, UniProt O14965); assay type: functional;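 also: value from the Navigating the Kinome kinase panel profiling, panel entry STK6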
[3] = biological target: Platelet-derived growth factor receptor alpha (Homo sapiens, UniProt P16234); assay: Navigating the Kinome. Panel member name: PDGFRA; assay type: functional
[4] = biological target: cAMP-dependent protein kinase catalytic subunit alpha (Homo sapiens, UniProt P17612); assay type: functional
[5] = biological target: Calcium/calmodulin-dependent protein kinase type II subunit delta (Homo sapiens, UniProt Q13557); assay type: functional
[6] = biological target: Interleukin-1 receptor-associated kinase 1 (Homo sapiens, UniProt P51617); assay type: functional;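 also: IRAK1 tested as one member of a kinome panel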
[7] = biological target: Phosphorylase b kinase gamma catalytic chain, liver/testis isoform (Homo sapiens, UniProt P15735); assay type: functional;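 also: PHKG2 measured as one member of a kinome-wide kinase panel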
[8] = biological target: Serine/threonine-protein kinase PAK 1 (Homo sapiens, UniProt Q13153); assay type: functional
[9] = biological target: Tyrosine-protein kinase receptor UFO (Homo sapiens, UniProt P30530); assay type: functional
[10] = biological target: 3-phosphoinositide-dependent protein kinase 1 (Homo sapiens, UniProt O15530); assay type: functional;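 also: value comes from the Navigating the Kinome panel, PDPK1 member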
[11] = biological target: Cyclin-dependent kinase 5 (Homo sapiens, UniProt Q00535); assay type: functional;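 also: CDK5 measured as one member of a kinase profiling panel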
[12] = biological target: Mitogen-activated protein kinase 12 (Homo sapiens, UniProt P53778); assay type: functional;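 also: measured as one member of a kinome-wide kinase profiling panel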
[13] = biological target: Inhibitor of nuclear factor kappa-B kinase subunit epsilon (Homo sapiens, UniProt Q14164); assay: Navigating the Kinome. Panel member name: IKBKE; assay type: functional
[14] = biological target: Tyrosine-protein kinase BTK (Homo sapiens, UniProt Q06187); assay type: functional
[15] = biological target: Casein kinase I isoform alpha (Homo sapiens, UniProt P48729); assay type: functional
[16] = biological target: Testis-specific serine/threonine-protein kinase 2 (Homo sapiens, UniProt Q96PF2); assay type: functional;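 also: part of the Navigating the Kinome panel, target entry STK22B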
[17] = biological target: Vascular endothelial growth factor receptor 3 (Homo sapiens, UniProt P35916); assay type: functional;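 also: value from a kinome-wide profiling panel, with FLT4 as the panel member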
[18] = biological target: T1, Cytochrome P450 1A2 (Homo sapiens, UniProt P05177);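 also: PubChem cytochrome P450 panel assay, CYP1A2 panel member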
T1 sequence (P05177 whole entry): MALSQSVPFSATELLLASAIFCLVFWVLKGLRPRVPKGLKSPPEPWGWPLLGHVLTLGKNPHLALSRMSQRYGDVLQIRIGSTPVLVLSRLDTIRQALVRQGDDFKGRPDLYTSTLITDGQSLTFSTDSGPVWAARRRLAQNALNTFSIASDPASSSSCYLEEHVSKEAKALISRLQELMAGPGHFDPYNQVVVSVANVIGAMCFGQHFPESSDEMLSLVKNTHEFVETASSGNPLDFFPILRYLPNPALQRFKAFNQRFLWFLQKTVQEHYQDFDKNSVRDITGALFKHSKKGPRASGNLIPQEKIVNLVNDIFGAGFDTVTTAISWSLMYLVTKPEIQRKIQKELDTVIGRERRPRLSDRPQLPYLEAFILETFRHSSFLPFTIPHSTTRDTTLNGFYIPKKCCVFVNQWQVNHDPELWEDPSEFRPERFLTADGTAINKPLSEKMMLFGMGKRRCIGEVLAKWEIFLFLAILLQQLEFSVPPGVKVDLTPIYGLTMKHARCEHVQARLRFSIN

[19] = biological target: Intestinal-type alkaline phosphatase (Homo sapiens, UniProt P09923); assay: activation of human intestinal alkaline phosphatase – biochemical, luminescent, uHTS hits, set 2, dose response (AID 488817); assay type: functional;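 also: potency of activators that raise enzyme activity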
[20] = biological target: T2, Caspase-6 (Homo sapiens, UniProt P55212); assay: inhibition of CASP6 peptide cleavage – biochemical, VEID-R110 fluorescence, cherry-pick, dose response (AID 720632)
T2 sequence (P55212 whole entry): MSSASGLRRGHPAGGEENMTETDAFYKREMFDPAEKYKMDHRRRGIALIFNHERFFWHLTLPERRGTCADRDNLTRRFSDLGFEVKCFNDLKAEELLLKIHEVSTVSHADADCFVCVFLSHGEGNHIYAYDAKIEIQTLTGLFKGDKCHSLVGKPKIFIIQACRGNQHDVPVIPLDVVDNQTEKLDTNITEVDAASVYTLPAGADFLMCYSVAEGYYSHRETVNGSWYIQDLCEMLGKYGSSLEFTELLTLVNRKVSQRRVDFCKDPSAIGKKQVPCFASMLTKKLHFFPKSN

[21] = non-specific 3'UTR reporter inhibition in Clone20-Shn3RL – cell-based, Renilla luciferase, cherry-picked, counter-screen for Shn3 inhibitor project, dose response (AID 624133); assay type: functional
[22] = HEK-293T viability loss after treatment – luminescence, T-cell screen hits, cytotoxicity control for TCR NF-kB inhibitor project, dose response (AID 489026); assay type: functional, cell-based;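 also: cells exposed to compound about 14 hours before the viability readout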
[23] = biological target: T3, Protein RecA (Mycobacterium tuberculosis, UniProt P9WHJ3); assay: Fluorescence Cell-Free Homogeneous Dose Retest to Identify Inhibitors of RecA-Intein Splicing Activity. [Related pubchem assays (depositor defined):AID2097, AID2223, AID489010, AID492950]; assay type: functional
T3 sequence (P9WHJ3 whole entry): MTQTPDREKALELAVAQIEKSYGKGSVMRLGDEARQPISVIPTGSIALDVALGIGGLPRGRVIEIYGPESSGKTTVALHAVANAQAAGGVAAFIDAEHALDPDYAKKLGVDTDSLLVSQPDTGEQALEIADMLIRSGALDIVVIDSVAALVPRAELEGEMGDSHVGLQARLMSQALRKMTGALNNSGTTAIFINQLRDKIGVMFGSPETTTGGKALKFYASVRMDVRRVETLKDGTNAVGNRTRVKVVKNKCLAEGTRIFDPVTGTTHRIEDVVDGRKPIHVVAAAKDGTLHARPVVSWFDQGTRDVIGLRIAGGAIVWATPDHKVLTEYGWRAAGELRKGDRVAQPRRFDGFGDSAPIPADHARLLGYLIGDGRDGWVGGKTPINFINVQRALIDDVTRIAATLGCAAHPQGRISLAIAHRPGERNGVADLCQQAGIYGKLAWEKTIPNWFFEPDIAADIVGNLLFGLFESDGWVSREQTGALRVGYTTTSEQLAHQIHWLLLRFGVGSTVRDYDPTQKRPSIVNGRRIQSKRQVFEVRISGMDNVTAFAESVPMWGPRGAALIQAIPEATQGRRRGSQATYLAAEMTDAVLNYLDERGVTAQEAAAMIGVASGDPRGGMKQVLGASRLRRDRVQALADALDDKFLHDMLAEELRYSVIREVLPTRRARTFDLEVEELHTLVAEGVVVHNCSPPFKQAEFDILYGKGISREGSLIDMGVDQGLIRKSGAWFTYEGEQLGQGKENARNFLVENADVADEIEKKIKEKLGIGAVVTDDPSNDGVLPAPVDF

Tyrosine-protein kinase BTK, sequence (Q06187 whole entry, canonical isoform): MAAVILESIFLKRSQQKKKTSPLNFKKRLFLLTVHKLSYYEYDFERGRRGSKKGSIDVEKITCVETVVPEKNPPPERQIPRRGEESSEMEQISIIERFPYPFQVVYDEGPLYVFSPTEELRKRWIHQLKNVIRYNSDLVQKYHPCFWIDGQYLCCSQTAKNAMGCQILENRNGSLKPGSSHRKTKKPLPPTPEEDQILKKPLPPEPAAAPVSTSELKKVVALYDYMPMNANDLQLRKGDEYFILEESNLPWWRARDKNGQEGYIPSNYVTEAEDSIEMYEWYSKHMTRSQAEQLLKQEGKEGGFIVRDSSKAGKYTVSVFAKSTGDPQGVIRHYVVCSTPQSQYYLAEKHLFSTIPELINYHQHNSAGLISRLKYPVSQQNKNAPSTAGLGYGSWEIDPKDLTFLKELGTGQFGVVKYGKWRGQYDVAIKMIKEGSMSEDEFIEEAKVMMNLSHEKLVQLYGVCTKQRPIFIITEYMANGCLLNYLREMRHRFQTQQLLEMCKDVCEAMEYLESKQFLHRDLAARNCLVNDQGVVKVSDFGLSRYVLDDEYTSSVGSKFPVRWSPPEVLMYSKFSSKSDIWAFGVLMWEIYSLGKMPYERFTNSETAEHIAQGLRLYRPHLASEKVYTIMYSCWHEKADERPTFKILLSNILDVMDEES
Mitogen-activated protein kinase 12, sequence (P53778 whole entry): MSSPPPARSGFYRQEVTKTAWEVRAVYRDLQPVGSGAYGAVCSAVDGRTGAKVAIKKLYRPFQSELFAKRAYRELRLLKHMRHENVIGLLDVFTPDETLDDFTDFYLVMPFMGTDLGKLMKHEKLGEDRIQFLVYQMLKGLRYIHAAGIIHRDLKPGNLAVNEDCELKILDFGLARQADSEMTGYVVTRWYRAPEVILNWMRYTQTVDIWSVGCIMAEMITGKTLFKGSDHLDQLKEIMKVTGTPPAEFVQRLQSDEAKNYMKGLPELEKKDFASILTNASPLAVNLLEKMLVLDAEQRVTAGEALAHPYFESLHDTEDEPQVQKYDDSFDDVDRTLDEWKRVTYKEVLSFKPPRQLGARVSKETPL
Intestinal-type alkaline phosphatase, sequence (P09923 whole entry): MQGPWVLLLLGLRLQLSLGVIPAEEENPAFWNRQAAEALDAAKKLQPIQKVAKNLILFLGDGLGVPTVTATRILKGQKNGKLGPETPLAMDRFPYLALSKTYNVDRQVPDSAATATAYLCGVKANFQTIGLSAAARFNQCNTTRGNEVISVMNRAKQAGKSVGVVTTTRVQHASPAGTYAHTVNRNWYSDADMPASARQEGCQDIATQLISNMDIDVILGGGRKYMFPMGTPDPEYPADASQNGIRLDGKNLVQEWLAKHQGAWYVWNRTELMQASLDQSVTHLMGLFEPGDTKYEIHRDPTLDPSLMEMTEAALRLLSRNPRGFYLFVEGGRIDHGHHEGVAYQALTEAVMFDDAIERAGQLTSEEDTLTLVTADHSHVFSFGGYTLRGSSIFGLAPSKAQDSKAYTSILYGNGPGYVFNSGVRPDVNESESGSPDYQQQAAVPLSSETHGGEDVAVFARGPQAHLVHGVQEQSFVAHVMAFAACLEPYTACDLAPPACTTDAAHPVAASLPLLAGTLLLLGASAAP
Serine/threonine-protein kinase PAK 1, sequence (Q13153 whole entry): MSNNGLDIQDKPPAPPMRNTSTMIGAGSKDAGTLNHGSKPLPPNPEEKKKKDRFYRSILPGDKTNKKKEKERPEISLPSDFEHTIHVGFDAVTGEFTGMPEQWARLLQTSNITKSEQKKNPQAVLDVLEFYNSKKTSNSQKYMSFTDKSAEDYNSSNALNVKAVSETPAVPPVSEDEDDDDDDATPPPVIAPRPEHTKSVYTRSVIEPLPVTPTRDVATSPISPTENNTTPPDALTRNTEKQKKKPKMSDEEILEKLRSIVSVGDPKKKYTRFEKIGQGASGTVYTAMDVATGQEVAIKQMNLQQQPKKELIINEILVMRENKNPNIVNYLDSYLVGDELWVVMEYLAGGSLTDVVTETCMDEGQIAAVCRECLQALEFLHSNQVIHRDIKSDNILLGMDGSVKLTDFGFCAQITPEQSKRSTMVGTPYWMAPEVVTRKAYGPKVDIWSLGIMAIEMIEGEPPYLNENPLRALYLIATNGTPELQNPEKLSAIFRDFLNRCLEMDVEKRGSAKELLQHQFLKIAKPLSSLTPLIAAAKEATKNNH
Calcium/calmodulin-dependent protein kinase type II subunit delta, sequence (Q13557 whole entry): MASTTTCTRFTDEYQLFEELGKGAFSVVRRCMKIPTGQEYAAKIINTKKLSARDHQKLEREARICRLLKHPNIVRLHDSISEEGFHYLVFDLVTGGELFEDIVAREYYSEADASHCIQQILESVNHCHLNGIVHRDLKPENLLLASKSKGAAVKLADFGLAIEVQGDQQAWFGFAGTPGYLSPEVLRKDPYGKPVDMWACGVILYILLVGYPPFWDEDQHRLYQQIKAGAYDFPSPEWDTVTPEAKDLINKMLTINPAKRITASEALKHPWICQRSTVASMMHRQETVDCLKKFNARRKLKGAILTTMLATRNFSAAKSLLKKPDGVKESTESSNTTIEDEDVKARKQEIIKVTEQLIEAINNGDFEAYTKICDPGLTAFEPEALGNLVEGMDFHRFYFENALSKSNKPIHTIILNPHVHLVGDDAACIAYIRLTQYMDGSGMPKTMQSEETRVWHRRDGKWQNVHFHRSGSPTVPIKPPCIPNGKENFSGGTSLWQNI
3-phosphoinositide-dependent protein kinase 1, sequence (O15530 whole entry): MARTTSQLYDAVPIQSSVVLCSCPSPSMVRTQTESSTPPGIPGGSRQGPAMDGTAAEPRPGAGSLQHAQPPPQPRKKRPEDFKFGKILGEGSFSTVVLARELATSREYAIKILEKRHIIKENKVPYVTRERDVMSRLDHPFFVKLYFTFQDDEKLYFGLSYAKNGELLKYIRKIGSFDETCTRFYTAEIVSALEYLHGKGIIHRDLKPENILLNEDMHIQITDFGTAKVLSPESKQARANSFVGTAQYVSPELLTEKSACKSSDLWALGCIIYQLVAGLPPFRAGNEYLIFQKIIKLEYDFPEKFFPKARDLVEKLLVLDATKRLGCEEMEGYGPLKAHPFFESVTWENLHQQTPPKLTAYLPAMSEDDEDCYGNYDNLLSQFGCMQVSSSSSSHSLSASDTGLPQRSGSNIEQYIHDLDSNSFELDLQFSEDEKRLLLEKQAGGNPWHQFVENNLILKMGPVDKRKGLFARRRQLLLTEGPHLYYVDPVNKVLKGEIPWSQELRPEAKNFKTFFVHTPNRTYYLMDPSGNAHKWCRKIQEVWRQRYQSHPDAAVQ
Interleukin-1 receptor-associated kinase 1, sequence (P51617 whole entry, canonical isoform): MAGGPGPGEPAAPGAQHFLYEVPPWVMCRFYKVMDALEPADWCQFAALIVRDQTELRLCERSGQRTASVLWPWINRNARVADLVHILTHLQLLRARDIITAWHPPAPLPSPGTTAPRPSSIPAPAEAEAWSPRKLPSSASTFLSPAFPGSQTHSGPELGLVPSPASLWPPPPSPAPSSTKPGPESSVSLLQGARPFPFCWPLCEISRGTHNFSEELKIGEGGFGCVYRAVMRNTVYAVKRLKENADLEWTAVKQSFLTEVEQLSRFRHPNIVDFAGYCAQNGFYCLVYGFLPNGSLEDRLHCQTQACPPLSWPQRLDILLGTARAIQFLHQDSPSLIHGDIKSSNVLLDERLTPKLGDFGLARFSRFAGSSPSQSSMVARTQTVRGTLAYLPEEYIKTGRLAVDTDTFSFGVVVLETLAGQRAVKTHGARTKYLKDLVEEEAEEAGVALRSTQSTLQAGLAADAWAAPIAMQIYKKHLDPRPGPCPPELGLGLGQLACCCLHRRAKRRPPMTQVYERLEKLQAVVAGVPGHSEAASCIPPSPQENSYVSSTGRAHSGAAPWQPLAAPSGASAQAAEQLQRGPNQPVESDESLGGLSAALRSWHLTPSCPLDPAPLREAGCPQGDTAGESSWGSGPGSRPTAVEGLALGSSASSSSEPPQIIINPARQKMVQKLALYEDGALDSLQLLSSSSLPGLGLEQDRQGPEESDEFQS
Aurora kinase A, sequence (O14965 whole entry): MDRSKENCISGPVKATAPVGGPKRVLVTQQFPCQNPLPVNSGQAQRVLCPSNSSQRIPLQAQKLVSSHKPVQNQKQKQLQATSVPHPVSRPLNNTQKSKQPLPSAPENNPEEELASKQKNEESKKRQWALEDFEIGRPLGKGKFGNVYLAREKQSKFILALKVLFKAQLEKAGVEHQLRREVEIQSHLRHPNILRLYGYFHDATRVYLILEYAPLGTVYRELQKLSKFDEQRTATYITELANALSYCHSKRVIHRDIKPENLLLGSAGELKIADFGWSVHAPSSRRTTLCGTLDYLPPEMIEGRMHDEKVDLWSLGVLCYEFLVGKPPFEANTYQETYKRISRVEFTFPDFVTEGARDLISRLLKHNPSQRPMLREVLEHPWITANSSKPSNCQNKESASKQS
Phosphorylase b kinase gamma catalytic chain, liver/testis isoform, sequence (P15735 whole entry, canonical isoform): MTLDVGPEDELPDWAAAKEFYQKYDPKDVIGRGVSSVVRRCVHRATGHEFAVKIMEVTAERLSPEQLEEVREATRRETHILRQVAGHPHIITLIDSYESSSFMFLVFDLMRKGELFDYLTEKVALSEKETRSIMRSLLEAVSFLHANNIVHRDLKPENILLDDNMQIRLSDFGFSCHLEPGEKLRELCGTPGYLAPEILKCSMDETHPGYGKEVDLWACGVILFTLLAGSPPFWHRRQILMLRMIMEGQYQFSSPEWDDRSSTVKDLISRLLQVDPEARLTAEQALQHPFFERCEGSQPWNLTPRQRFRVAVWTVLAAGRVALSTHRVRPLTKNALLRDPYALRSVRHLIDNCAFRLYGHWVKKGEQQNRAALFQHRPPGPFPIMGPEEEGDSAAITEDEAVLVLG
Cyclin-dependent kinase 5, sequence (Q00535 whole entry): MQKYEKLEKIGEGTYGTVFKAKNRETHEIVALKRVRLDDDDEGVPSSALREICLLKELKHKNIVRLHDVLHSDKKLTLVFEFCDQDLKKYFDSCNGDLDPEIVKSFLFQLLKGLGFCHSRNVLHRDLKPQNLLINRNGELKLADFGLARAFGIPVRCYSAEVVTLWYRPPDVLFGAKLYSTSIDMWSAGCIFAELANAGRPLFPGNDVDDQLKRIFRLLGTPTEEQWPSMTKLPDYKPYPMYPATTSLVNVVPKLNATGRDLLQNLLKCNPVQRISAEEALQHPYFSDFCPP

For `Nc1noc2cccc(-c3cccc(O)c3)c12`, which Ki [1] is on record?
The Ki was > 3.16 µM (inactive).

And the Ki [2]?
Its Ki is > 31.6 µM (inactive).

And the Ki [3]?
The Ki was 6.31 µM (active).

What about the Ki [4] of the same compound?
The Ki was 2.51 µM (active).

And the Ki [5]?
Its Ki is 2.51 µM (active).

What about the Ki [6] of the same compound?
The Ki was > 7.94 µM (inactive).

And the Ki [7]?
Its Ki is > 5.01 µM (inactive).

And the Ki [8]?
The Ki was > 10 µM (inactive).

What about the Ki [9] of the same compound?
Its Ki is > 2 µM (inactive).

What about the Ki [10] of the same compound?
The Ki was > 3.98 µM (inactive).

What about the Ki [11] of the same compound?
The Ki was > 6.31 µM (inactive).

What about the Ki [12] of the same compound?
The Ki was > 6.31 µM (inactive).

And the Ki [13]?
The Ki was 39.8 µM (active).

And the Ki [14]?
The Ki was > 39.8 µM (inactive).

And the Ki [15]?
The Ki was > 5.01 µM (inactive).

What about the Ki [16] of the same compound?
The Ki was > 1.58 µM (inactive).

What about the Ki [17] of the same compound?
Its Ki is > 6.31 µM (inactive).

Which AC50 [18] does the source give for `CN(C)S(=O)(=O)Oc1cccc(C(=O)Nc2ccc(Cl)c(Cl)c2)c1` here?
Its AC50 is 2 µM (inconclusive).

What does the source list for `O=C(NN1C(=O)CSC1=S)C(=O)NN1C(=O)CSC1=S`?
EC50 [19]: 12.4 µM (active); AC50 [20]: 0.276 µM (active)

Which AC50 [21] does the source give for `COC(=O)C1CN(C#N)N(c2ccc(Cl)cc2)C12c1ccccc1-c1ccccc12` (stereo not drawn) here?
Its AC50 is 3 µM (active).

And the IC50 [22]?
The IC50 was 56.6 µM (inactive).

What about the EC50 [23] of the same compound?
Its EC50 is 7 µM (active).
